Data published in patent publication US4454137A, “Feed compositions containing copper salts of 2-hydroxypyridine-N-oxides” (SmithKline Beckman Corporation, priority 1982, dated 1984).
Several values for one entry are separate records, joined by “and”; a condition that tells them apart may be missing. Equal entries are not always repeated. Where two headings read alike, the source gives them in different places.

Columns and labels:
inoculum (ileal) = assay: In vitro swine procedure, ileal inoculum incubation (VFA, lysine, glucose, L-lactic acid); design: species or system swine (Yorkshire barrow)
[1] = W. Barker et al., J. Antibiotics 32 1096 (1979); cited from earlier work
post weanling pigs [2] = assay: Pig feeding test, corn and rye diets (Example 7); format: in vivo; conditions: 10 ppm
Description: Each replication contained 8 treatment groups in turn comprising 2 pigs per pen. The experiment was run similar to that of Example 6 except another control having a rye diet was added.

post weanling pigs [3] = assay: Post weanling pig feeding test, corn based pre-starter feed (Example 6); format: in vivo; conditions: 10 ppm; corn ration
Text: Each replication contained 8 treatment groups in turn comprising 2 pigs per pen.

inoculum (cecal) = assay: In vitro swine procedure, cecal inoculum incubation (VFA, lysine, glucose, L-lactic acid); design: species or system swine (Yorkshire barrow)
[4] = ileal, 167 ppm, positive control of run 1(a), DMSO series (carrier not given)

**Q.** For `O=[N+]([O-])c1ccc([O-])[n+]([O-])c1.O=[N+]([O-])c1ccc([O-])[n+]([O-])c1.[Cu+2]` [5-Nitro-2-hydroxypyridine-N--oxide, Cu^++], which “LYS (lysine)” value (inoculum (ileal)) is on record?
**A.** 109

**Q.** And the “GLU (glucose)” value (inoculum (ileal); ileal, 167 ppm)?
**A.** 110 % of blank control values and 104 % of blank control values

**Q.** And the “LAC (L-lactic acid)” value (inoculum (ileal); ileal, 167 ppm)?
**A.** 160 % of blank control values and 106 % of blank control values

**Q.** What about the “LYS (lysine)” value (inoculum (ileal); ileal, 167 ppm) of the same molecule?
**A.** 159 % of blank control values

**Q.** And the “VFA (total of volatile fatty acids)” value (inoculum (ileal); ileal, 167 ppm)?
**A.** 47 % of blank control values and 48 % of blank control values

**Q.** Which “GLU (glucose)” value (inoculum (ileal); ileal, 3.3 ppm) does the source give for `O=S(=O)([O-])[O-].[Cu+2]` [Copper sulfate] here?
**A.** 109 % of blank control values

**Q.** And the “LAC (L-lactic acid)” value (inoculum (ileal); ileal, 3.3 ppm)?
**A.** 113 % of blank control values

**Q.** And the “LYS (lysine)” value (inoculum (ileal); ileal, 3.3 ppm)?
**A.** 107 % of blank control values

**Q.** What about the “VFA (total of volatile fatty acids)” value (inoculum (ileal); ileal, 3.3 ppm) of the same molecule?
**A.** 99 % of blank control values

**Q.** What about the “GLU (glucose)” value (inoculum (ileal); ileal, 33.3 ppm) of the same molecule?
**A.** 98 % of blank control values

**Q.** What about the “LAC (L-lactic acid)” value (inoculum (ileal); ileal, 33.3 ppm) of the same molecule?
**A.** 104 % of blank control values

**Q.** And the “VFA (total of volatile fatty acids)” value (inoculum (ileal); ileal, 33.3 ppm)?
**A.** 99 % of blank control values

**Q.** What about the “GLU (glucose)” value (inoculum (ileal); ileal, 333.33 ppm) of the same molecule?
**A.** 113 % of blank control values

**Q.** And the “LAC (L-lactic acid)” value (inoculum (ileal); ileal, 333.33 ppm)?
**A.** 137 % of blank control values

**Q.** And the “LYS (lysine)” value (inoculum (ileal); ileal, 333.33 ppm)?
**A.** 107 % of blank control values

**Q.** And the “VFA (total of volatile fatty acids)” value (inoculum (ileal); ileal, 333.33 ppm)?
**A.** 47 % of blank control values

**Q.** Which “antimicrobial activity relative to iron salt and ligand parent” value [1] does the source give for `COc1ccc(=O)n([O-])c1C.COc1ccc(=O)n([O-])c1C.[Cu+2]` [copper salt of 2-hydroxy-5-methoxy-6-methylpyridine-N-oxide] here?
**A.** less antimicrobial activity than does either the corresponding iron salt or the ligand parent

**Q.** Which results are given for virginiamycin?
**A.** Average Daily Gain, 0-23 days (post weanling pigs [2]; Vm + Cont. (corn diet)): 0.582 kg; Average Daily Gain, 0-23 days (post weanling pigs [2]; Vm + Rye (rye diet)): 0.529 kg; Average daily gain (0-21 days) (post weanling pigs [3]): .667; Feed/gain (post weanling pigs [3]): 2.56; Feed/gain, percent in parentheses (control 100%) (post weanling pigs [3]): 97.4%; VFA (total of volatile fatty acids) (inoculum (cecal)): 94; GLU (glucose) (inoculum (cecal); cecal, 0.17 ppm): 30 % of blank control values; LYS (lysine) (inoculum (cecal); cecal, 0.17 ppm): 71 % of blank control values; GLU (glucose) (inoculum (cecal); cecal, 1.67 ppm): 72 % of blank control values; LYS (lysine) (inoculum (cecal); cecal, 1.67 ppm): 74 % of blank control values; VFA (total of volatile fatty acids) (inoculum (cecal); cecal, 1.67 ppm): 100 % of blank control values; GLU (glucose) (inoculum (cecal); cecal, 16.67 ppm): 524 % of blank control values; LAC (L-lactic acid) (inoculum (cecal); cecal, 16.67 ppm): 35 % of blank control values; LYS (lysine) (inoculum (cecal); cecal, 16.67 ppm): 107 % of blank control values; VFA (total of volatile fatty acids) (inoculum (cecal); cecal, 16.67 ppm): 83 % of blank control values; GLU (glucose) (inoculum (cecal); cecal, 167 ppm): 732 % of blank control values; LAC (L-lactic acid) (inoculum (cecal); cecal, 167 ppm): 49 % of blank control values; LYS (lysine) (inoculum (cecal); cecal, 167 ppm): 172 % of blank control values; VFA (total of volatile fatty acids) (inoculum (cecal); cecal, 167 ppm): 89 % of blank control values; GLU (glucose) (inoculum (ileal); ileal, 167 ppm): 133 % of blank control values; LAC (L-lactic acid) (inoculum (ileal); ileal, 167 ppm): 29 % of blank control values; LYS (lysine) (inoculum (ileal); ileal, 167 ppm): 134 % of blank control values; GLU (glucose) (inoculum (ileal); [4]): 101 % of blank control values; LAC (L-lactic acid) (inoculum (ileal); [4]): 16 % of blank control values; LYS (lysine) (inoculum (ileal); [4]): 167 % of blank control values; VFA (total of volatile fatty acids) (inoculum (ileal); [4]): 14 % of blank control values
